Experiments:
Assay in all cases: relative viability (nuclei count vs DMSO), 5 days (fraction); higher = more cells survive
Sorafenib + Luminespib = compound: CNC(=O)c1cc(Oc2ccc(NC(=O)Nc3ccc(Cl)c(C(F)(F)F)c3)cc2)ccn1 [Sorafenib] + CCNC(=O)c1noc(-c2cc(C(C)C)c(O)cc2O)c1-c1ccc(CN2CCOCC2)cc1 [Luminespib] (partner 0.01 µM)
Procedure, shortened: (§1)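 Dosing by pin tool came one day after lung cancer cell lines were seeded in 1536-well plates, using either one drug or a fixed anchor-drug dose plus five library-drug doses (not always all listed) in √10 steps. After 5 days, nuclei were counted on 4× images. Relative viability is treated-well nuclei count divided by vehicle-well nuclei count, and values are medians of duplicate plates.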

Sorafenib + OSI-027 = compound: CNC(=O)c1cc(Oc2ccc(NC(=O)Nc3ccc(Cl)c(C(F)(F)F)c3)cc2)ccn1 [Sorafenib] + COc1cccc2cc(-c3nc([C@H]4CC[C@H](C(=O)O)CC4)n4ncnc(N)c34)[nH]c12 [OSI-027] (partner 0.5 µM)
Procedure, shortened: as §1

Sorafenib + Pictilisib = compound: CNC(=O)c1cc(Oc2ccc(NC(=O)Nc3ccc(Cl)c(C(F)(F)F)c3)cc2)ccn1 [Sorafenib] + CS(=O)(=O)N1CCN(Cc2cc3nc(-c4cccc5[nH]ncc45)nc(N4CCOCC4)c3s2)CC1 [Pictilisib] (partner 1 µM)
Procedure, shortened: as §1

Sorafenib + Phenformin = compound: CNC(=O)c1cc(Oc2ccc(NC(=O)Nc3ccc(Cl)c(C(F)(F)F)c3)cc2)ccn1 [Sorafenib] + N=C(N)NC(=N)NCCc1ccccc1 [Phenformin] (partner 250 µM)
Procedure, shortened: as §1

Sorafenib + Olaparib = compound: CNC(=O)c1cc(Oc2ccc(NC(=O)Nc3ccc(Cl)c(C(F)(F)F)c3)cc2)ccn1 [Sorafenib] + O=C(c1cc(Cc2n[nH]c(=O)c3ccccc23)ccc1F)N1CCN(C(=O)C2CC2)CC1 [Olaparib] (partner 8 µM)
Procedure, shortened: as §1

| Cell Line | relative viability (Sorafenib + Luminespib; first compound 0.08 µM) | relative viability (Sorafenib + Luminespib; first compound 0.253 µM) | relative viability (Sorafenib + Luminespib; first compound 2.53 µM) | relative viability (Sorafenib + Luminespib; first compound 8 µM) | relative viability (Sorafenib + OSI-027; first compound 0.08 µM) | relative viability (Sorafenib + OSI-027; first compound 0.253 µM) | relative viability (Sorafenib + OSI-027; first compound 2.53 µM) | relative viability (Sorafenib + OSI-027; first compound 8 µM) | relative viability (Sorafenib + Pictilisib; first compound 0.08 µM) | relative viability (Sorafenib + Pictilisib; first compound 0.253 µM) | relative viability (Sorafenib + Pictilisib; first compound 2.53 µM) | relative viability (Sorafenib + Pictilisib; first compound 8 µM) | relative viability (Sorafenib + Phenformin; first compound 0.08 µM) | relative viability (Sorafenib + Phenformin; first compound 0.253 µM) | relative viability (Sorafenib + Phenformin; first compound 2.53 µM) | relative viability (Sorafenib + Phenformin; first compound 8 µM) | relative viability (Sorafenib + Olaparib; first compound 0.253 µM) | relative viability (Sorafenib + Olaparib; first compound 2.53 µM) | relative viability (Sorafenib + Olaparib; first compound 8 µM) | relative viability (Sorafenib + Olaparib; first compound 0.08 µM) |
| --- | --- | --- | --- | --- | --- | --- | --- | --- | --- | --- | --- | --- | --- | --- | --- | --- | --- | --- | --- | --- |
| NCI-H1355 | 0.717 | 0.687 | 0.779 | 0.62 | 0.459 | 0.38 | 0.512 | 0.336 | 0.444 | 0.465 | 0.45 | 0.346 | 0.497 | 0.468 | 0.452 | 0.387 | 0.753 | 0.685 | 0.411 |  |
| NCI-H1395 | 0.742 | 0.703 | 0.576 | 0.53 | 0.691 | 0.562 | 0.72 | 0.459 | 0.603 | 0.636 | 0.642 | 0.39 | 0.51 | 0.407 | 0.453 | 0.392 |  | 0.515 | 0.394 | 0.517 |
| NCI-H1437 | 1.1 | 1.06 | 1.17 |  | 0.949 | 0.676 | 0.8 | 0.558 | 0.483 | 0.393 | 0.364 | 0.238 | 0.301 | 0.299 | 0.302 | 0.306 | 0.585 | 0.493 | 0.254 | 0.633 |
| NCI-H1650 | 0.183 | 0.183 | 0.193 | 0.209 | 0.83 | 0.599 | 0.908 | 0.31 | 0.691 | 0.529 | 0.71 | 0.308 | 0.557 | 0.456 | 0.564 | 0.164 | 0.741 | 0.707 | 0.643 | 0.684 |
| NCI-H1651 | 0.965 | 0.778 | 0.958 | 0.319 | 0.777 | 0.687 | 0.655 | 0.622 | 0.688 | 0.517 | 0.555 | 0.445 | 0.389 | 0.307 | 0.318 | 0.148 | 0.174 | 0.187 | 0.178 | 0.18 |
| NCI-H1666 |  | 1.03 | 0.951 | 0.872 | 0.912 | 0.781 | 0.798 | 0.692 | 0.497 | 0.407 | 0.451 | 0.331 | 0.562 | 0.546 | 0.544 | 0.452 | 0.765 | 0.721 |  | 0.785 |
| NCI-H1734 | 0.235 | 0.131 | 0.186 | 0.161 | 0.585 | 0.534 | 0.584 | 0.318 | 0.465 | 0.469 | 0.471 | 0.248 | 0.459 | 0.362 | 0.411 | 0.236 | 0.541 | 0.563 | 0.601 | 0.609 |
| NCI-H1755 | 0.67 | 0.399 | 0.371 | 0.404 | 0.718 | 0.639 | 0.746 | 0.666 | 0.466 | 0.422 | 0.417 | 0.263 | 0.569 |  | 0.624 | 0.534 | 0.797 | 0.856 | 0.748 | 0.912 |

— the supplement of paper PMC10307832
